Measurements: ChEMBL document CHEMBL3351767, “The discovery of Polo-like kinase 4 inhibitors: design and optimization of spiro[cyclopropane-1,3'[3H]indol]-2'(1'H).ones as orally bioavailable antitumor agents” (J Med Chem, 2015)

How the values were obtained:
Cytochrome P450 2D6 = Cytochrome P450 2D6 (Homo sapiens, UniProt P10635); assay: Inhibition of CYP2D6 (unknown origin) using AMMC substrate after 45 mins by fluorescence assay; format: ADME
[1] = biological target: Vascular endothelial growth factor receptor 2 (Homo sapiens, UniProt P35968); assay: Inhibition of KDR (unknown origin) by FRET-based homogeneous assay
Cytochrome P450 2C19 = Cytochrome P450 2C19 (Homo sapiens, UniProt P33261); assay: Inhibition of CYP2C19 (unknown origin) using MFC substrate after 30 mins by fluorescence assay; format: ADME
Cytochrome P450 3A4 = Cytochrome P450 3A4 (Homo sapiens, UniProt P08684); assay: Inhibition of CYP3A4 (unknown origin) using BFC substrate after 30 mins by fluorescence assay; format: ADME
MDA-MB-468 = assay: Cytotoxicity against human MDA-MB-468 cells after 5 days by SRB assay; format: functional; settings: MDA-MB-468, 120 h
[2] = AUC in SCID mouse at 25 mg/kg, po by LCMS/MS method; format: ADME, organism-based; design: dose 25 mg/kg, route oral; settings: plasma
[3] = Cytotoxicity against human SKBR3 cells after 5 days by SRB assay; format: functional; settings: SK-BR-3, 120 h
MCF7 = assay: Cytotoxicity against human MCF7 cells after 5 days by SRB assay; format: functional; settings: MCF7, 120 h
Cytochrome P450 2C9 = Cytochrome P450 2C9 (Homo sapiens, UniProt P11712); assay: Inhibition of CYP2C9 (unknown origin) using MFC substrate after 45 mins by fluorescence assay; format: ADME
Cytochrome P450 1A2 = biological target: T1, Cytochrome P450 1A2 (Homo sapiens, UniProt P05177); assay: Inhibition of CYP1A2 (unknown origin) using CEC substrate after 15 mins by fluorescence assay; format: ADME
T1 sequence (P05177 whole entry): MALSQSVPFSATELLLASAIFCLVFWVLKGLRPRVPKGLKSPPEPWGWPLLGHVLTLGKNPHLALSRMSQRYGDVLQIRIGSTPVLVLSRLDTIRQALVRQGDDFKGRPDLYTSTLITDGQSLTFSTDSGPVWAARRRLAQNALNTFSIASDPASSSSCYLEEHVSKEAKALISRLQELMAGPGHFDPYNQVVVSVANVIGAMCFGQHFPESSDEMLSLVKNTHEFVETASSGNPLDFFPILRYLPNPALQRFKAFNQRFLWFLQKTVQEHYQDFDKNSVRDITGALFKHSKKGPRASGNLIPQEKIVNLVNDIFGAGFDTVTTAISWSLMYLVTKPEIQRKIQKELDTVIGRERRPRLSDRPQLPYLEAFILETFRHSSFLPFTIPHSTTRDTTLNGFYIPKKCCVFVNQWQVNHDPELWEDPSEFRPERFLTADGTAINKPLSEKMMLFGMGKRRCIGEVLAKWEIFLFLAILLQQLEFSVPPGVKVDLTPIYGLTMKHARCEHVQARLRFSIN

[4] = Cmax in SCID mouse at 25 mg/kg, po by LCMS/MS method; format: ADME, organism-based; design: dose 25 mg/kg, route oral; settings: in vivo
MDA-MB-231 = assay: Cytotoxicity against human MDA-MB-231 cells after 5 days by SRB assay; format: functional; settings: MDA-MB-231, 120 h
[5] = biological target: T2, Receptor-type tyrosine-protein kinase FLT3 (Homo sapiens, UniProt P36888); assay: Inhibition of FLT3 (unknown origin) by FRET-based homogeneous assay
T2 sequence (P36888 whole entry): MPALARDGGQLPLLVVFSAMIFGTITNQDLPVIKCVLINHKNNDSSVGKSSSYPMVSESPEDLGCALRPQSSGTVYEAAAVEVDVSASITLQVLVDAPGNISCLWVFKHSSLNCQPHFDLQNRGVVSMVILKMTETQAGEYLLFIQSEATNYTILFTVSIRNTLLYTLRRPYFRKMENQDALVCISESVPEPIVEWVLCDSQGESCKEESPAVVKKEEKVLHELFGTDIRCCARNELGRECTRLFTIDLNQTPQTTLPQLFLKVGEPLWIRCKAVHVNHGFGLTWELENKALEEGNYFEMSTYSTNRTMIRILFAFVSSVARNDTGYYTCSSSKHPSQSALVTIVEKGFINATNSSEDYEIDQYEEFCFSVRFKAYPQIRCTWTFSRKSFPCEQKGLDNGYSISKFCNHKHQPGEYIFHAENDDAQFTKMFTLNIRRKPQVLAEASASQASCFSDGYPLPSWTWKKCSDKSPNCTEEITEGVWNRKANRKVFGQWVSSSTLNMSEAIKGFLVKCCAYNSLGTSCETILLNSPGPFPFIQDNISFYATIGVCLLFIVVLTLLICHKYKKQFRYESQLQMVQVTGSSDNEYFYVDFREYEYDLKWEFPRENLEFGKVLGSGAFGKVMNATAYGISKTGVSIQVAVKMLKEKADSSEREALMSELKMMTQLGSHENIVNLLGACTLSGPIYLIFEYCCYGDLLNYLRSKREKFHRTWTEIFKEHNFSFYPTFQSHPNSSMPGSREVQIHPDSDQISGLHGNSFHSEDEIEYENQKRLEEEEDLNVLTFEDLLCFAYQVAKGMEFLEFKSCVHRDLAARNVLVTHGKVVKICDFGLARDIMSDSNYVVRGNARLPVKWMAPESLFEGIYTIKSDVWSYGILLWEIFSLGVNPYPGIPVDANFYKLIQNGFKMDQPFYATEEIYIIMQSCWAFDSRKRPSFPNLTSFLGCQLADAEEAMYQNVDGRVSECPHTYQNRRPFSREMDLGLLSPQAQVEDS

Sequence of Cytochrome P450 2D6 (P10635 whole entry): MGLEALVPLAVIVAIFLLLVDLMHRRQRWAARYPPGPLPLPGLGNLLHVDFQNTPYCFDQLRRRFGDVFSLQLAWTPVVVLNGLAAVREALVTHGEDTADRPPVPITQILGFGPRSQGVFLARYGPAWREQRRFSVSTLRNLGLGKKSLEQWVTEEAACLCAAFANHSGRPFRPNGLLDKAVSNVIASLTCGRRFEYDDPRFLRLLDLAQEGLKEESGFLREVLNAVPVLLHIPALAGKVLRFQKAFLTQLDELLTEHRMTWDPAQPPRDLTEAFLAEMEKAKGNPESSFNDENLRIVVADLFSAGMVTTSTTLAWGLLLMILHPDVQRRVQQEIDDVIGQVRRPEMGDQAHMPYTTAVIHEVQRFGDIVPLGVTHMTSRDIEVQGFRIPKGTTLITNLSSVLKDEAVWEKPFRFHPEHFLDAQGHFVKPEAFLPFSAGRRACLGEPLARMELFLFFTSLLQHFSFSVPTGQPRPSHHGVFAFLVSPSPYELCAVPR
Sequence of Cytochrome P450 3A4 (P08684 whole entry): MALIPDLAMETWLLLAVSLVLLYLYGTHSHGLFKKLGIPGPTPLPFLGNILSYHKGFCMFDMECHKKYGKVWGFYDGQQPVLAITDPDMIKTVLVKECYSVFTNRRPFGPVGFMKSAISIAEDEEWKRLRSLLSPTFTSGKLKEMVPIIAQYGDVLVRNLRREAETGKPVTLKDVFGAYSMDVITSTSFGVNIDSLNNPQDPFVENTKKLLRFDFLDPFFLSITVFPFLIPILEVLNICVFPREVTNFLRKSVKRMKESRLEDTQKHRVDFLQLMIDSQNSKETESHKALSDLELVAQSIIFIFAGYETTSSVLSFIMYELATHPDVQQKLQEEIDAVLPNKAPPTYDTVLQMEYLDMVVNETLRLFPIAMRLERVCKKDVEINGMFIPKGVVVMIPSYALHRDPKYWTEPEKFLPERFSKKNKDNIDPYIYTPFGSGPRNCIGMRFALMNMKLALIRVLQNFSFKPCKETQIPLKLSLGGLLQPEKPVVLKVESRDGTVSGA
Sequence of Vascular endothelial growth factor receptor 2 (P35968 whole entry): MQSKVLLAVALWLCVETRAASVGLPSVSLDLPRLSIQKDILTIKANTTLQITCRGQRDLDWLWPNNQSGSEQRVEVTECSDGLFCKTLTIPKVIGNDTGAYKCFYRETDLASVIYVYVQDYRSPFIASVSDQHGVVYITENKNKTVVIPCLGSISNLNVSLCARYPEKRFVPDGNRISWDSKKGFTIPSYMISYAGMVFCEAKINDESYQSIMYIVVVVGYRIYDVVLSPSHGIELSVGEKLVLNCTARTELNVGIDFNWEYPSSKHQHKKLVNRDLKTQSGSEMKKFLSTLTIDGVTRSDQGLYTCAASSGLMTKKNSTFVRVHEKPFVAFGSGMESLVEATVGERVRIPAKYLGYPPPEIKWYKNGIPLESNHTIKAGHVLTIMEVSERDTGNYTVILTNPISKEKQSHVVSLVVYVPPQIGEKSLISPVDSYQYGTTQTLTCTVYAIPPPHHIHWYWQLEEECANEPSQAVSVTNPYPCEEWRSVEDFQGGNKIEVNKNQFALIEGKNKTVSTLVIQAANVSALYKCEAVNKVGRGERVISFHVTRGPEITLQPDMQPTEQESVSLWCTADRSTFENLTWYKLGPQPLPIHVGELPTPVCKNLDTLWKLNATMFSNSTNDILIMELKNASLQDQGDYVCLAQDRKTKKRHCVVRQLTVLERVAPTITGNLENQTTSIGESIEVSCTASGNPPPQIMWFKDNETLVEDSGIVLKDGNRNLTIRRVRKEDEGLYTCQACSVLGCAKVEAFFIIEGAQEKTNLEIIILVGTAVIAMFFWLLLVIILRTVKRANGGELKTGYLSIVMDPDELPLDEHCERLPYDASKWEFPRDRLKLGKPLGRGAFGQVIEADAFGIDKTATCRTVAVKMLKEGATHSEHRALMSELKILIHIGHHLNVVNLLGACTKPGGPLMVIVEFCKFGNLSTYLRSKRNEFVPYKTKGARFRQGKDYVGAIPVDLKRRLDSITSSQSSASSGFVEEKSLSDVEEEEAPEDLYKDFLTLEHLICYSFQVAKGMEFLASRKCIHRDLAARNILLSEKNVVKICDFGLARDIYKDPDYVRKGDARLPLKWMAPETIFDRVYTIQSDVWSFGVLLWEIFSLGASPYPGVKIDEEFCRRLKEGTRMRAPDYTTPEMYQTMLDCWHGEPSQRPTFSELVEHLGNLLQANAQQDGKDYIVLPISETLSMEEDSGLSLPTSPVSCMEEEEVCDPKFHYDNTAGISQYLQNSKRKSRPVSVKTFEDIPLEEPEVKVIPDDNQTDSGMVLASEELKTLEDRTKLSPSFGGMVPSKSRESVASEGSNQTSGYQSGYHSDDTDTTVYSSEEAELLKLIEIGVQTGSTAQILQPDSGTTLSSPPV
Sequence of Cytochrome P450 2C19 (P33261 whole entry): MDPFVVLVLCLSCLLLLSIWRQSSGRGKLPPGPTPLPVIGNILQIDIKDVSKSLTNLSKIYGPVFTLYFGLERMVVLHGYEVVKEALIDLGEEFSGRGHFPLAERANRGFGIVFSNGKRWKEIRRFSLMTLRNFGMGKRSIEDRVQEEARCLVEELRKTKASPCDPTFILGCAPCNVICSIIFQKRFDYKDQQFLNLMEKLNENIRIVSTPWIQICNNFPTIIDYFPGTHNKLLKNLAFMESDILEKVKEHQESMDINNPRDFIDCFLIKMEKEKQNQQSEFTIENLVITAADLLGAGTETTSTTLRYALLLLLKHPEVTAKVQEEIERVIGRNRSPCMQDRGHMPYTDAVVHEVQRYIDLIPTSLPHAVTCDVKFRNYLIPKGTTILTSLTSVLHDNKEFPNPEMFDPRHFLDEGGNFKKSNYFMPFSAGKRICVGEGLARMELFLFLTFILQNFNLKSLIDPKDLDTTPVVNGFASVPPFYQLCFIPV
Sequence of Cytochrome P450 2C9 (P11712 whole entry): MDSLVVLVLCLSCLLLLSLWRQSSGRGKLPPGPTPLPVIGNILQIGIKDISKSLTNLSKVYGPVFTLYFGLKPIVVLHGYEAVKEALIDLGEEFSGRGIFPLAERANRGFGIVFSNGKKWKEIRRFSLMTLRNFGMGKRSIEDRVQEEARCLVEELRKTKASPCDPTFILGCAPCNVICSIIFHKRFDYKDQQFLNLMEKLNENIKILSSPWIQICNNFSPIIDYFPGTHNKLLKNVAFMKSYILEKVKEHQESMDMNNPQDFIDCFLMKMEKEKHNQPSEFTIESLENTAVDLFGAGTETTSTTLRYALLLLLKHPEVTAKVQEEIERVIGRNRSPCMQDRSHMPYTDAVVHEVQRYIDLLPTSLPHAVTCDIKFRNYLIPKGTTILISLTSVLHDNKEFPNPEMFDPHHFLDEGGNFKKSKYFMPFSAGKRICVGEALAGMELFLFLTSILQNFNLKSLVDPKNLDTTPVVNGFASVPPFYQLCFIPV

O=C1Nc2ccccc2[C@]12C[C@H]2c1ccc2c(/C=C/c3ccc(CN4CCOCC4)cc3)n[nH]c2c1 (relative stereo)
IC50 (Cytochrome P450 2D6): > 10000 nM | IC50 [1]: 1400 nM | IC50 (Cytochrome P450 2C19): 1800 nM | IC50 (Cytochrome P450 3A4): > 1000 nM | GI50 (MDA-MB-468): 10 nM | AUC [2]: 4300 ng·h/mL | GI50 [3]: 11300 nM | GI50 (MCF7): 10 nM | IC50 (Cytochrome P450 2C9): 1400 nM | IC50 (Cytochrome P450 1A2): > 10000 nM | Cmax [4]: 1800 ng/mL | GI50 (MDA-MB-231): < 10 nM

O=C1Nc2ccccc2[C@]12C[C@H]2c1ccc2c(/C=C/c3ccc(CN4CCCCC4)cc3)n[nH]c2c1 (relative stereo)
IC50 [1]: 12 nM | GI50 (MDA-MB-468): 500 nM | GI50 [3]: 800 nM | GI50 (MCF7): 600 nM | GI50 (MDA-MB-231): 900 nM

CN(C)Cc1ccc(/C=C/c2n[nH]c3cc([C@@H]4C[C@@]45C(=O)Nc4ccc(OC(F)F)cc45)ccc23)cc1 (relative stereo)
IC50 [1]: 4900 nM | IC50 [5]: 32 nM | GI50 (MDA-MB-468): 5 nM | GI50 [3]: 1600 nM | GI50 (MCF7): 25 nM | GI50 (MDA-MB-231): 4800 nM

CN(C)Cc1ccc(/C=C/c2n[nH]c3cc([C@@H]4C[C@@]45C(=O)Nc4ccc(Cl)cc45)ccc23)cc1 (relative stereo)
GI50 (MDA-MB-468): 0.06 nM | GI50 [3]: 3500 nM | GI50 (MCF7): 0.01 nM | GI50 (MDA-MB-231): 930 nM

O=C1Nc2ccc(F)cc2[C@]12C[C@H]2c1ccc2c(/C=C/c3ccc(CN4CCOCC4)cc3)n[nH]c2c1
IC50 (Cytochrome P450 2D6): > 10000 nM | IC50 (Cytochrome P450 2C19): 1000 nM | IC50 (Cytochrome P450 3A4): > 1000 nM | GI50 (MDA-MB-468): 20 nM | AUC [2]: 7940 ng·h/mL | GI50 [3]: 10000 nM | GI50 (MCF7): 900 nM | IC50 (Cytochrome P450 2C9): 500 nM | IC50 (Cytochrome P450 1A2): > 10000 nM | Cmax [4]: 3700 ng/mL | GI50 (MDA-MB-231): 720 nM

O=C1Nc2ccccc2[C@]12C[C@H]2c1ccc2c(/C=C/c3ccc(CN4CCCC4)cc3)n[nH]c2c1 (relative stereo)
GI50 (MDA-MB-468): < 10 nM | GI50 [3]: 4100 nM | GI50 (MCF7): 50 nM | GI50 (MDA-MB-231): 1900 nM

Cc1ccc(/C=C/c2n[nH]c3cc([C@@H]4C[C@@]45C(=O)Nc4ccccc45)ccc23)c(C)n1 (relative stereo)
IC50 [1]: 2100 nM | IC50 [5]: 59 nM | GI50 (MDA-MB-468): 70 nM | GI50 [3]: 50000 nM | GI50 (MCF7): 6800 nM | GI50 (MDA-MB-231): > 50000 nM

CCc1ccc2c(c1)[C@]1(C[C@H]1c1ccc3c(/C=C/c4ccc(CN(C)C)cc4)n[nH]c3c1)C(=O)N2 (relative stereo)
GI50 (MDA-MB-468): 10 nM | GI50 [3]: 2000 nM | GI50 (MCF7): 240 nM | GI50 (MDA-MB-231): 2000 nM

O=C1Nc2ccccc2[C@]12C[C@H]2c1ccc2c(/C=C/c3cccnc3)n[nH]c2c1 (relative stereo)
IC50 (Cytochrome P450 2D6): > 1000 nM | IC50 (Cytochrome P450 2C19): 110 nM | IC50 (Cytochrome P450 3A4): > 1000 nM | GI50 (MDA-MB-468): 9 nM | AUC [2]: 93 ng·h/mL | GI50 [3]: 14700 nM | GI50 (MCF7): 3600 nM | IC50 (Cytochrome P450 2C9): 320 nM | IC50 (Cytochrome P450 1A2): 140 nM | Cmax [4]: 37 ng/mL | GI50 (MDA-MB-231): 50000 nM

COc1ccc2c(c1)[C@]1(C[C@H]1c1ccc3c(/C=C/c4cc(F)c(CN5CCOCC5)c(F)c4)n[nH]c3c1)C(=O)N2 (relative stereo)
IC50 [1]: 7900 nM | GI50 (MDA-MB-468): 60 nM | GI50 [3]: 3700 nM | GI50 (MCF7): 50 nM | GI50 (MDA-MB-231): 1700 nM

CN(C)Cc1ccc(/C=C/c2n[nH]c3cc([C@@H]4C[C@@]45C(=O)Nc4ccc(F)cc45)ccc23)cc1 (relative stereo)
GI50 (MDA-MB-468): 10 nM | GI50 [3]: 2200 nM | GI50 (MCF7): 100 nM | GI50 (MDA-MB-231): 550 nM

O=C1Nc2ccccc2[C@]12C[C@H]2c1ccc2c(/C=C/c3ccc(CN4CCCCC4)nc3)n[nH]c2c1 (relative stereo)
GI50 (MDA-MB-468): 0.4 nM | GI50 [3]: 3400 nM | GI50 (MCF7): 0.01 nM | GI50 (MDA-MB-231): 35800 nM

Cc1ccc2c(c1)[C@]1(C[C@H]1c1ccc3c(/C=C/c4ccc(CN(C)C)cc4)n[nH]c3c1)C(=O)N2 (relative stereo)
GI50 (MDA-MB-468): 0.05 nM | GI50 [3]: 3400 nM | GI50 (MCF7): 0.01 nM | GI50 (MDA-MB-231): 2800 nM

COc1ccc2c(c1)[C@]1(C[C@H]1c1ccc3c(/C=C/c4ccc(CN5CCCCC5)nc4)n[nH]c3c1)C(=O)N2 (relative stereo)
IC50 (Cytochrome P450 2C19): 600 nM | GI50 (MDA-MB-468): 0.02 nM | AUC [2]: 740 ng·h/mL | GI50 [3]: 9200 nM | GI50 (MCF7): 0.01 nM | IC50 (Cytochrome P450 2C9): 1400 nM | Cmax [4]: 290 ng/mL | GI50 (MDA-MB-231): 3900 nM

COc1ccc2c(c1)[C@]1(C[C@H]1c1ccc3c(/C=C/c4ccc(CN5CCOCC5)cc4)n[nH]c3c1)C(=O)N2 (relative stereo)
IC50 (Cytochrome P450 2D6): > 1000 nM | IC50 [1]: 24000 nM | IC50 (Cytochrome P450 2C19): 2100 nM | IC50 (Cytochrome P450 3A4): > 1000 nM | GI50 (MDA-MB-468): < 10 nM | AUC [2]: 4900 ng·h/mL | GI50 [3]: 13800 nM | GI50 (MCF7): < 10 nM | IC50 (Cytochrome P450 2C9): 1400 nM | IC50 (Cytochrome P450 1A2): > 10000 nM | Cmax [4]: 1700 ng/mL | GI50 (MDA-MB-231): < 10 nM

Cc1ccc2c(c1)[C@]1(C[C@H]1c1ccc3c(/C=C/c4ccc(CN5CCOCC5)cc4)n[nH]c3c1)C(=O)N2 (relative stereo)
GI50 (MDA-MB-468): 30 nM | GI50 [3]: 8800 nM | GI50 (MCF7): 80 nM | GI50 (MDA-MB-231): 560 nM

Cc1ccc(/C=C/c2n[nH]c3cc([C@@H]4C[C@@]45C(=O)Nc4ccccc45)ccc23)cn1
GI50 (MDA-MB-468): 140 nM | GI50 [3]: 7600 nM | GI50 (MCF7): 280 nM | GI50 (MDA-MB-231): 3800 nM

CNC(=O)c1ccccc1Sc1ccc2c(/C=C/c3ccccn3)n[nH]c2c1 [AXITINIB]
GI50 (MDA-MB-468): 2800 nM | GI50 [3]: 4600 nM | GI50 (MCF7): 2300 nM
